Measured values from patent publication US20160209428A1, “DIAGNOSTIC AND PREDICTIVE METABOLITE PATTERNS FOR DISORDERS AFFECTING THE BRAIN AND NERVOUS SYSTEM” (THE REGENTS OF THE UNIVERSITY OF CALIFORNIA, priority 2013, published 2016).

How the values were obtained:
[1] = mice, after a single dose; cited from earlier work
[2] = tested on: Fragile X (Fmr1) knockout mouse; assay: Social preference and social novelty, Fragile X model; format: in vivo; details: male Fmr1 KO mice, weekly suramin 20 mg/kg ip
Text: A Fragile X (Fmr1) knockout mouse was used on the FVB strain background. It has the genotype: FVB.129P2-Pde6b^+ Tyr^c-ch Fmr1^tm1Cgr/J (Jackson Stock #004624). The Fmr1^tm1Cgr allele contains a neomycin resistance cassette replacing exon 5 that results in a null allele that makes no FMR mRNA or protein. The control strain used has the genotype: FVB.129P2-Pde6b^+ Tyr^c-ch/AntJ (Jackson Stock #004828). […] The wild-type Pde6b locus from the 129P2 ES cells corrects the retinal degeneration phenotype that produces blindness by 5 weeks of age in typical FVB mice. The Fmr1 locus is X-linked, so males are hemizygous and females are homozygous for the knockout. A metabolomic analysis on Fmr1 knockout mice on the C57BL/6J background was also performed to refine the understanding of which metabolic disturbances were directly related to the Fmr1 knockout, and which were the result of changes in genetic background. For these studies the same Fmr1^tm1Cgr knockout allele bred on the C57BL6/J background was used. These animals had the genotype: B6.129P2-Fmr1^tm1Cgr/J (Jackson Stock#003025). […]
Altered social behavior is a measure of autism-like features in mouse models of autism. […] There was also a 35% reduction in social novelty, as measured by the time spent interacting with a novel mouse compared to a familiar mouse. […]

[3] = tested on: cerebral synaptosomal protein; assay: Western blot analysis of cerebral synaptosomal proteins, Fragile X model; format: in vivo, mouse; details: Fmr1 KO mice
Text: Twenty μg of cerebral synaptosomal protein was loaded in SDS-polyacrylamide gels (Bis-Tris Gels) and transferred to PVDF membranes. The blots were first stained with Ponceau S, scanned, and the transfer efficiency was quantified by densitometry before blocking with 3% skim milk, and probing with primary and secondary antibodies for signal development by enhanced chemiluminescence (ECL).

[4] = tested on: Fragile X (Fmr1) knockout mouse; assay: Body temperature measurements (rectal core temperature); format: in vivo
Experimental: A BAT-12 Microprobe digital thermometer and RET-3 mouse rectal probe (Physitemp Instruments, Clifton, N.J.) were used to obtain rectal core temperatures to a precision of +/−0.1° C. Care was taken to measure temperatures ≧2 days after cage bedding changes, and to avoid animal transport stress immediately prior to measurement in order to avoid stress-induced hyperthermia (Adriaan Bouwknecht et al., 2007). Temperatures were measured between 9 am to 12 noon each day.
Normal basal body temperature was restored by antipurinergic therapy with suramin.

[5] = cerebral synaptosomes, suramin vs saline
[6] = cerebral synaptosomes, listed as suramin

In the case of `Cc1ccc(C(=O)Nc2ccc(S(=O)(=O)O)c3cc(S(=O)(=O)O)cc(S(=O)(=O)O)c23)cc1NC(=O)c1cccc(NC(=O)Nc2cccc(C(=O)Nc3cc(C(=O)Nc4ccc(S(=O)(=O)O)c5cc(S(=O)(=O)O)cc(S(=O)(=O)O)c45)ccc3C)c2)c1` [Suramin, suramin], the plasma half-life [1] is given as 1 week, the “altered social behavior (social preference, social novelty)” value [2] is given as “corrected” and the “proteins interrogated in cerebral synaptosomes that were changed” value ([3]; suramin vs saline) is given as 17 of 54. The “Response to Suramin KO-Sur/KO-Sal: 7-dehydrocholesterol reductase/7DHCR” value ([3]; cerebral synaptosomes) was “Up”, the “Response to Suramin KO-Sur/KO-Sal: APC” value ([3]; cerebral synaptosomes) was “Down” and the “Response to Suramin KO-Sur/KO-Sal: Acetyl-CoA acetyltransferase 2/ACAT2” value ([3]; cerebral synaptosomes) was “None”. For the same compound, the “Response to Suramin KO-Sur/KO-Sal: Akt” value ([3]; cerebral synaptosomes) was “decreased and Down”, the “Response to Suramin KO-Sur/KO-Sal: Amyloid β (Aβ) precursor protein/APP” value ([3]; cerebral synaptosomes) was “Down” and the “Response to Suramin KO-Sur/KO-Sal: C1qA” value ([3]; cerebral synaptosomes) was “Down”. The “Response to Suramin KO-Sur/KO-Sal: CB1” value ([3]; cerebral synaptosomes) was “Down”, the “Response to Suramin KO-Sur/KO-Sal: CB2” value ([3]; cerebral synaptosomes) was “unchanged and None” and the “Response to Suramin KO-Sur/KO-Sal: CPY27A1” value ([3]; cerebral synaptosomes) was “None”. The “Response to Suramin KO-Sur/KO-Sal: Dopamine Receptor D4/D4R” value ([3]; cerebral synaptosomes) was “None”, the “Response to Suramin KO-Sur/KO-Sal: ETFQO/ETFDH” value ([3]; cerebral synaptosomes) was “None” and the “Response to Suramin KO-Sur/KO-Sal: Fragile X mental retardation protein/FMRP” value ([3]; cerebral synaptosomes) was “None”. For the same compound, the “Response to Suramin KO-Sur/KO-Sal: GABA A Receptor beta 3/GABA-β3” value ([3]; cerebral synaptosomes) was “None”, the “Response to Suramin KO-Sur/KO-Sal: GluR1” value ([3]; cerebral synaptosomes) was “Down” and the “Response to Suramin KO-Sur/KO-Sal: HMGCoA Reductase/HMOCoAR” value ([3]; cerebral synaptosomes) was “None”. The “Response to Suramin KO-Sur/KO-Sal: IP3R I” value ([3]; cerebral synaptosomes) was “Up”, the “Response to Suramin KO-Sur/KO-Sal: Indoleamine 2,3-dioxygenase 1/IDO-1” value ([3]; cerebral synaptosomes) was “None” and the “Response to Suramin KO-Sur/KO-Sal: Metabotropic glutamate receptor 5/mGluR5” value ([3]; cerebral synaptosomes) was “no effect and None”. The “Response to Suramin KO-Sur/KO-Sal: Methionine Sulfoxide Reductase A/MSRA” value ([3]; cerebral synaptosomes) was “None”, the “Response to Suramin KO-Sur/KO-Sal: Nicotinic Acetylcholine Receptor alpha 7/nAchR7” value ([3]; cerebral synaptosomes) was “None” and the “Response to Suramin KO-Sur/KO-Sal: Nitro Tyrosine” value ([3]; cerebral synaptosomes) was “None”. The “Response to Suramin KO-Sur/KO-Sal: P2X1” value ([3]; cerebral synaptosomes) was “None”, the “Response to Suramin KO-Sur/KO-Sal: P2X2” value ([3]; cerebral synaptosomes) was “None” and the “Response to Suramin KO-Sur/KO-Sal: P2X3R” value ([3]; cerebral synaptosomes) was “Down”. For the same compound, the “Response to Suramin KO-Sur/KO-Sal: P2X4” value ([3]; cerebral synaptosomes) was “None”, the “Response to Suramin KO-Sur/KO-Sal: P2X5” value ([3]; cerebral synaptosomes) was “None” and the “Response to Suramin KO-Sur/KO-Sal: P2X6” value ([3]; cerebral synaptosomes) was “None”. The “Response to Suramin KO-Sur/KO-Sal: P2X7” value ([3]; cerebral synaptosomes) was “None”, the “Response to Suramin KO-Sur/KO-Sal: P2Y1R” value ([3]; cerebral synaptosomes) was “Up” and the “Response to Suramin KO-Sur/KO-Sal: P2Y2” value ([3]; cerebral synaptosomes) was “None”. The “Response to Suramin KO-Sur/KO-Sal: P2Y4” value ([3]; cerebral synaptosomes) was “None”, the “Response to Suramin KO-Sur/KO-Sal: PGC1a” value ([3]; cerebral synaptosomes) was “None” and the “Response to Suramin KO-Sur/KO-Sal: PI3K” value ([3]; cerebral synaptosomes) was “decreased and Down”. The “Response to Suramin KO-Sur/KO-Sal: PKC” value ([3]; cerebral synaptosomes) was “None”, the “Response to Suramin KO-Sur/KO-Sal: PPAR beta/delta” value ([3]; cerebral synaptosomes) was “Up” and the “Response to Suramin KO-Sur/KO-Sal: PPARa” value ([3]; cerebral synaptosomes) was “no effect and None”. The “Response to Suramin KO-Sur/KO-Sal: Postsynaptic Density protein 95/PSD95” value ([3]; cerebral synaptosomes) was “None”, the “Response to Suramin KO-Sur/KO-Sal: Steroidogenic acute regulatory protein/StAR” value ([3]; cerebral synaptosomes) was “Up” and the “Response to Suramin KO-Sur/KO-Sal: TAR DNA-binding protein 43/TDP43” value ([3]; cerebral synaptosomes) was “Down”. For the same compound, the “Response to Suramin KO-Sur/KO-Sal: TGFβ Receptor I” value ([3]; cerebral synaptosomes) was “None”, the “Response to Suramin KO-Sur/KO-Sal: mTOR” value ([3]; cerebral synaptosomes) was “not observed and None” and the “Response to Suramin KO-Sur/KO-Sal: nAchR beta2” value ([3]; cerebral synaptosomes) was “None”. The “Response to Suramin KO-Sur/KO-Sal: p-eIF2α(Ser51)” value ([3]; cerebral synaptosomes) was “None”, the “Response to Suramin KO-Sur/KO-Sal: p-mTOR(ser2448)” value ([3]; cerebral synaptosomes) was “not observed and None” and the “Response to Suramin KO-Sur/KO-Sal: pAkt(Ser473)” value ([3]; cerebral synaptosomes) was “None”. The “Response to Suramin KO-Sur/KO-Sal: pAkt(Thr308)” value ([3]; cerebral synaptosomes) was “None”, the “Response to Suramin KO-Sur/KO-Sal: pCAMKII(Thr286)” value ([3]; cerebral synaptosomes) was “None” and the “Response to Suramin KO-Sur/KO-Sal: pERK1/2(Thr202/Tyr204)” value ([3]; cerebral synaptosomes) was “None”. For the same compound, the “Response to Suramin KO-Sur/KO-Sal: pGSK3β (Ser9)” value ([3]; cerebral synaptosomes) was “Up”, the “Response to Suramin KO-Sur/KO-Sal: pPERK(Thr980)” value ([3]; cerebral synaptosomes) was “None” and the “Response to Suramin KO-Sur/KO-Sal: pPKC(Ser660)” value ([3]; cerebral synaptosomes) was “None”. The “Response to Suramin KO-Sur/KO-Sal: pS6K(Thr389)” value ([3]; cerebral synaptosomes) was “Up”, the “Response to Suramin KO-Sur/KO-Sal: pSTAT3(ser727)” value ([3]; cerebral synaptosomes) was “None” and the “decrease of CB1 receptor expression” value [3, 5] was 16%. For the same compound, the “decrease of P2X3 receptor expression” value [3, 5] was 18%, the “decrease of ionotropic GluR1 expression” value [3, 5] was 15% and the “decrease of synaptosomal APP levels” value [3, 5] was 23%. For the same compound, the “decrease of synaptosomal C1qA” value [3, 5] was 24%, the “decrease of synaptosomal TDP43” value [3, 5] was 27% and the “decrease of total APC expression” value [3, 5] was 29%. The “increase in IP3R1 expression” value [3, 5] was 101%, the “increase of 7-dehydrocholesterol reductase (7DHCR)” value [3, 5] was 24% and the “increase of P2Y1 receptor expression” value [3, 5] was 31%. For the same compound, the “increase of inhibitory phosphorylation of S6 kinase (S6K)” value [3, 5] was 47%, the “increase of inhibitory phosphorylation of glycogen synthase kinase 3β (GSK3β)” value [3, 5] was 75% and the “increase of steroidogenic acute regulatory (StAR) protein” value [3, 5] was 165%. For the same compound, the “Response to Suramin KO-Sur/KO-Sal: Nicotinic Acetylcholine Receptor alpha 7/nAchR7” value [3, 6] was “No effect”, the “Response to Suramin KO-Sur/KO-Sal: P2X7” value [3, 6] was “No effect” and the “Response to Suramin KO-Sur/KO-Sal: P2Y2” value [3, 6] was “No effect”. The “Response to Suramin KO-Sur/KO-Sal: pCAMKII(Thr286)” value [3, 6] was “No effect”, the “Response to Suramin KO-Sur/KO-Sal: pERK1/2(Thr202/Tyr204)” value [3, 6] was “No effect” and the “increase of PPARβ expression” value ([3]; purified brain synaptosomes, suramin vs saline) was 34%. The “body temperature of control animals” value ([4]; WT-Sal vs WT-Sur) was “no effect” and the “basal body temperature of Fmr1 knockout mice” value ([4]; relative hypothermia of knockout, suramin treatment) was “restored”.
